Activity calls are given as the source filed them. For most assays here, no stated cut-off is given here; in the data, actives have a measured EC50 and inactives only a lower limit.
Assays:
Cytochrome P450 3A4 = Cytochrome P450 3A4 (Homo sapiens, UniProt P08684);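 further: CYP3A4 tested as one member of a cytochrome P450 panel screen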
[1] = target: T1, Polyadenylate-binding protein 1 (Homo sapiens, UniProt P11940); assay: PABP1 MLLE–PAM2 binding inhibitor potency, dose response, biochemical, fluorescence polarization, FITC-PAM2 peptide (AID 602259); format: functional; conditions: read-out: IC50_Mean
T1 sequence (P11940 whole entry): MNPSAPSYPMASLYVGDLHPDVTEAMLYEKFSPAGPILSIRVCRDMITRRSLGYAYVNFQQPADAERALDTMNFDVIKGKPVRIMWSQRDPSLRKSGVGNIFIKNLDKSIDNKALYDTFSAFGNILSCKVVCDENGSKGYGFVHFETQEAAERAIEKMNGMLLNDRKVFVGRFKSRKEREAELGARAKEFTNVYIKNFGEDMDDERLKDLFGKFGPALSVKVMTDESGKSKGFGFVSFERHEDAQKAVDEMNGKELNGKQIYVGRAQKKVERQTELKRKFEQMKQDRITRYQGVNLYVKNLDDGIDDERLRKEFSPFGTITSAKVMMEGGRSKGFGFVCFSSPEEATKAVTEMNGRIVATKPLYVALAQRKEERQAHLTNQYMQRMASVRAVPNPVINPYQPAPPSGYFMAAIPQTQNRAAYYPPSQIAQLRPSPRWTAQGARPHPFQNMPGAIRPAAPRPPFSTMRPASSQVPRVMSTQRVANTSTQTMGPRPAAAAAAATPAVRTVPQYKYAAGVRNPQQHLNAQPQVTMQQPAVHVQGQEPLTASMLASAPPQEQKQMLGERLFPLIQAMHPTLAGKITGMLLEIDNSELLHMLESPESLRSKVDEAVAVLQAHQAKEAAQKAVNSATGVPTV

[2] = target: T1, Polyadenylate-binding protein 1; assay: PABP1 MLLE–PAM2 interaction inhibitors, dose response, miRNA deadenylation inhibitor project, biochemical, fluorescence polarization, Cy5-PAM2 peptide, secondary (AID 602260); format: functional; conditions: read-out: IC50_Mean
Streptococcus = assay: Group A Streptococcus viability loss, dose response, counter-screen for streptokinase expression inhibitor project, luminescence, BacTiterGlo (AID 1915); format: functional, organism-based;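 further: potency for reduction of bacterial viability or growth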
[3] = NIH-3T3 fibroblast cytotoxicity, dose response, cytotoxicity control, cell-based, fluorescence, Alamar Blue, secondary assay (AID 2327); format: functional;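 further: NIH-3T3 mouse fibroblasts cultured with fluconazole at 8 µg/mL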
[4] = system: Streptococcus sp. 'group A'; assay: growth inhibition of control SK(-) GAS strain, dose response, counter-screen for streptokinase expression inhibitor project, luminescence, kanamycin, BacTiterGlo, confirmation (AID 1900); format: functional, organism-based
[5] = C. albicans growth with fluconazole, confirmation, fluorescence, retest (AID 2467); format: functional, cell-based
[6] = target: Luciferin 4-monooxygenase (Photinus pyralis, UniProt P08659); assay: firefly luciferase enzyme inhibitors, dose response, biochemical, luminescence (AID 1891)
Chain of Luciferin 4-monooxygenase (P08659 whole entry): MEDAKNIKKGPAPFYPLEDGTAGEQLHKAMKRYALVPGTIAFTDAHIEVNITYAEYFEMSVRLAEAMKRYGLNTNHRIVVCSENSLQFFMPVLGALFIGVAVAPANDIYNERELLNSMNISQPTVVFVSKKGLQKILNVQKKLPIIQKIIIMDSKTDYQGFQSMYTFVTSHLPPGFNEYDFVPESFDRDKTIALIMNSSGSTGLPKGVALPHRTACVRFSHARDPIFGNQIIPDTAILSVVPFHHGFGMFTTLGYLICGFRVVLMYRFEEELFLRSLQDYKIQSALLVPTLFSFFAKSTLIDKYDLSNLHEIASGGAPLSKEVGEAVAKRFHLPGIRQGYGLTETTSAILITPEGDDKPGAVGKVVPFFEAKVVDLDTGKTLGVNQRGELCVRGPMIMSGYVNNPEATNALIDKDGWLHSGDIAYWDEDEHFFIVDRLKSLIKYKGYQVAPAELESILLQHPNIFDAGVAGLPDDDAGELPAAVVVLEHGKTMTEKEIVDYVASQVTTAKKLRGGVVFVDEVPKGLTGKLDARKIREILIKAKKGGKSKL

[7] = Luminescence Cell-Based Dose Confirmation HTS to Identify Inhibitors of Platelet Dense Granule Release. [Related pubchem assays: 1663 (Primary HTS), 1678 (Summary of Project)]; format: functional
INS1 = assay: beta cell apoptosis inhibitors, cytokine rescue, dose response, luminescence, retest (AID 449756); format: functional, cell-based; conditions: Rattus norvegicus;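 further: cell death triggered by IL-1 beta plus TNF-alpha plus IFN-gamma mixture; protective hits raise ATP signal compared with cytokine alone wells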
[8] = inhibitors of clade B AD8 Env fusion, dose response, cell-based, cherry-pick (AID 652062); format: functional;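 further: luciferase signal from cell-cell fusion driven by HIV-1 clade B AD8 Env; potency is for inhibitors of fusion seen as a drop in luminescence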
[9] = ZM109 Env clade C HIV-1 fusion inhibitors, dose response, HeLa effector, CEM target cells, luciferase, cherry-pick (AID 652058); format: functional, cell-based
BJ [10] = assay: cytotoxicity toward BJ-TERT-LT-ST fibroblasts, dose response, cell-based, RAS-independent, luminescence (AID 1935); format: functional; conditions: Homo sapiens;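 further: BJ fibroblasts immortalized with TERT plus LT and ST oncogenes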
BJ [11] = assay: cells; format: functional, cell-based; conditions: Homo sapiens
BJ [12] = assay: cytotoxicity toward BJ-TERT fibroblasts, dose response, cell-based, RAS-independent, luminescence (AID 1933); format: functional; conditions: Homo sapiens
[13] = cytotoxicity toward DRD oncogenic fibroblasts, dose response, cell-based, non-viral oncogenic, luminescence (AID 1934); format: functional; conditions: Homo sapiens
Streptokinase A = target: T2, Streptokinase A (Streptococcus pyogenes serotype M1, UniProt P10520); assay: S. pyogenes streptokinase expression inhibitors, potency, dose response, plasminogen activation absorbance, OD405 (AID 1914); format: functional, Streptococcus pyogenes M1 GAS;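 further: secreted streptokinase activity via plasminogen activation per viability signal from cell pellet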
T2 sequence (P10520 whole entry): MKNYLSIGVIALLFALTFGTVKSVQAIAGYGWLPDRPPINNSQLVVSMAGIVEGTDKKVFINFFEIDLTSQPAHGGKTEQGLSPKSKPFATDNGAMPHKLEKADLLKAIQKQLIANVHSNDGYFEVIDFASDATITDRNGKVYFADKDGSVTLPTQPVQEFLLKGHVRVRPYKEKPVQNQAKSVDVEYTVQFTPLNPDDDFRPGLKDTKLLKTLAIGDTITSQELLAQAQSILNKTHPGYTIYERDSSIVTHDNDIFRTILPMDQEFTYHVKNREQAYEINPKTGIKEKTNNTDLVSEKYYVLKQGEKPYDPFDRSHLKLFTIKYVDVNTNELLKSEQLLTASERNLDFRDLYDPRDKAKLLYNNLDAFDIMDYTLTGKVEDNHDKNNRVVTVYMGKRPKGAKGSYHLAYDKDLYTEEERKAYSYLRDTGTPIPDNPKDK

Chain of Cytochrome P450 3A4 (P08684 whole entry): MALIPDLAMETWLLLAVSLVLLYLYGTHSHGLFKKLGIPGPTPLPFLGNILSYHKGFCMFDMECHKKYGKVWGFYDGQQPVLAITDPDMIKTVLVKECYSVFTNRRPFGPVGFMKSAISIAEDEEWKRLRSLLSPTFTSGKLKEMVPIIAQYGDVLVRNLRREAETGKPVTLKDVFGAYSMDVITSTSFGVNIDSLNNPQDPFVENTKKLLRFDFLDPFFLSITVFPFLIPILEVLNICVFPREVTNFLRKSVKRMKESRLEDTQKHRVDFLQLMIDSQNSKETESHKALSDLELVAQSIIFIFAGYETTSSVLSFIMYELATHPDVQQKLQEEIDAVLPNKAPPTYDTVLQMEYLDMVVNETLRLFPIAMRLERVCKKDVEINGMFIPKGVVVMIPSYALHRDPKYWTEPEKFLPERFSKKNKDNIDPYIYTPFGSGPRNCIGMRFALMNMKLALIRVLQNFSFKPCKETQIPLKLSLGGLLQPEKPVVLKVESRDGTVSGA

COC(=O)c1cc(-c2ccccc2)sc1NC(=O)CN1C(=O)c2ccccc2C1=O
AC50 (Cytochrome P450 3A4): 31.6 µM (inconclusive) | IC50 [1]: > 66 µM (inactive) | IC50 [2]: > 66 µM (inactive)

O=C(c1cc(-c2ccccc2)[nH]n1)N1CCc2c([nH]c3ccccc23)C1c1ccccn1 (centres undefined)
EC50 (Streptococcus): 20.4 µM (active) | EC50 [3]: > 160 µM (inactive) | EC50 [4]: 10.3 µM (active) | EC50 [5]: 0.718 µM (active)

CCCCNC(=O)c1ccc(N2CCC3(CC2)OCCO3)c([N+](=O)[O-])c1
EC50 [6]: > 112 µM (not active) | EC50 [7]: > 112 µM (not active)

COc1cc(NC(=O)c2ccccc2NS(=O)(=O)c2ccc(Cl)s2)cc(OC)c1
EC50 [3]: 14.5 µM (active) | AC50 (INS1): 5.95 µM (active) | EC50 [5]: 4.13 µM (active)

O=C(NC(=S)Nc1ccc(CN2CCOCC2)cc1)c1ccc([N+](=O)[O-])cc1
IC50 [1]: > 66 µM (inactive) | IC50 [2]: > 66 µM (inactive)

C=CC[n+]1c(-c2ccc(OC)c(OC)c2)csc1NNC(=O)Nc1ccccc1
AC50 [8]: 15.8 µM (active) | AC50 [9]: 0.401 µM (active)

O=C(O)c1ccc2c(=O)n3c(nc2c1)/C(=C/c1ccc(C(F)(F)F)cc1)CC3
EC50 (BJ [10]): > 150 µM (inconclusive) | EC50 (BJ [11]): > 150 µM (not active) | EC50 (BJ [12]): > 150 µM (not active) | EC50 [13]: > 150 µM (not active)

CCOc1ccccc1C(=O)NCC(=O)NNC(=O)CN(C)S(=O)(=O)c1ccc(Cl)cc1
AC50 [9]: 23.6 µM (active)

COc1cccc(N/C=C/C(=O)c2ccc(OC)c(OC)c2)c1
EC50 [6]: 14.2 µM (active) | EC50 [7]: 22.8 µM (active)

Cc1cc(Nc2cccc(Cl)c2Cl)n2ncnc2n1
EC50 [3]: > 150 µM (inactive) | EC50 [5]: 0.769 µM (active)

O=[N+]([O-])/C=C/c1c(OCc2ccccc2)ccc2ccccc12
EC50 (Streptococcus): 4.18 µM (active) | EC50 (BJ [10]): 3.63 µM (inconclusive) | EC50 (BJ [11]): 90.6 µM (inconclusive) | EC50 (BJ [12]): 2.3 µM (inconclusive) | EC50 [4]: 1.49 µM (active) | EC50 (Streptokinase A): 1.2 µM (active) | EC50 [13]: 3.7 µM (active)

Cc1cc(O)nc(SCC(=O)Nc2ccc(C(=O)O)cc2)n1
IC50 [1]: > 66 µM (inactive) | IC50 [2]: > 66 µM (inactive)

Source: ChEMBL document CHEMBL1201862, “PubChem BioAssay data set” (2004)
